Measurements taken from patent US5837548A, “Treatment of inflammation by inhibition of lipid body formation” (Beth Israel Hospital, priority 1995, dated 1998).

Tests used:
Type in all cases: cell-based
[1] = tested on: human neutrophils (LTB4 production); test: LTB4 production by human neutrophils (priming, A23187 stimulation, ELISA)
Method: FIG. 1A is a graph illustrating the effect of arachidonic acid (AA) and oleic acid (OA) on induction of lipid body formation (black) and priming effects (white) for enhanced leukotriene B4 (LTB4) by human neutrophils. Neutrophils (10^6 /mL) were stimulated for one hour with arachidonic acid (3.7, 7.5, 15 μM) or oleic acid (2.5, 5, 10 μM). Lipid bodies were enumerated using light microscopy following osmium staining. The concentration of LTB4 in the supernatant was measured by ELISA after incubation with A23187 (0.5 μM) for 15 minutes at 37° C. Data are expressed as mean from 2-3 independent assays performed in duplicate.
FIG. 5A is a graph showing that aspirin inhibits cis-unsaturated fatty acid-induced priming for enhanced leukotriene B4 (LTB4) production in human neutrophils. Striped and open columns represent vehicle treated cells and aspirin treated cells, respectively. Cells (10^6 /mL) were pretreated with aspirin (10 μg/mL) or vehicle for one hour and then stimulated with OA (10 μM) or vehicle for one hour. The concentration of LTB4 in the supernatant was measured by ELISA after incubation with A23187 (0.5 μM) for 15 minutes at 37° C. Data are expressed as mean from 2-4 independent assays performed in duplicate. The statistically significant difference between the vehicle alone and the agonist is represented by a cross. Statistically significant differences due to pretreatment with aspirin are indicated by an asterisk.
(§1) After the incubation time, a sample was taken for lipid body enumeration and the cells were washed in Ca^++ /Mg^++ free HBSS. Leukocytes were resuspended in 1 mL of HBSS containing Ca^++ /Mg^++ and then stimulated with A23187 (0.5 μM) for 15 min. The reaction was stopped on ice, and the samples were centrifuged at 1500 rpm for 10 min at 4° C. The concentrations of PGE2, LTB4, and LTC4 in the supernatants were assayed by ELISA according to the manufacturer's instructions (Cayman, Ann Arbor, Mich.).

human eosinophils = test: cis-unsaturated fatty acid-induced lipid body formation in human eosinophils
Method: Vehicle alone is represented by the dark columns. AA and OA are represented by the striped and gray columns, respectively. Agonist plus the pretreatment with aspirin is represented by the cross-hatched columns. Cells (10^6 /mL) were pretreated with aspirin (10 μg/mL) or vehicle for one hour and then stimulated arachidonic acid (15 μM), oleic acid (10 μM) or vehicle for one hour. Lipid bodies were enumerated by light microscopy following osmium staining. Each point represents the mean±SEM from fifty consecutively counted cells. The statistically significant difference between the vehicle alone and the agonist is represented by a cross. Statistically significant differences due to pretreatment with aspirin are indicated by an asterisk.
Neutrophils were purified from fresh human blood obtained by venipuncture from healthy adult volunteers and collected into acidified citrate. After addition of 6% dextran 70 (McGaw, Irvine, Calif.), RBCs were allowed to sediment for 1 hour at room temperature. The leukocyte-rich supernatant was overlaid onto an equal volume of Ficoll-Paque gradient (Piscataway, N.J.), and centrifuged at 400×g for 20 min. PMNs (>95% pure, rest being eosinophils) were recovered from the pellet and washed in Ca^++ /Mg^++ free HBSS. Residual RBCs were lysed with hypotonic saline. Eosinophils (80% pure, the rest being neutrophils) were obtained from a donor with idiopathic hypereosinophilic syndrome using the same procedure as described above.
Human leukocytes (10^6 cells/mL) were incubated with varying concentrations of arachidonic acid (AA), oleic acid (OA) or vehicle at 37° C. in a 5% CO2 /95% O2 atmosphere, and after 1 hour leukocytes (10^5 cells per slide) were cytocentrifuged (550 rpm, 5 min) onto glass slides. During inhibitory studies, neutrophils were pretreated for 1 hour with varying concentrations of enzyme inhibitors, protein synthesis inhibitors, or vehicle as indicated. When PKC inhibitors were used, the pre-incubation time was reduced to 30 minutes to avoid toxic effects to the cells. The cell viability, determined by trypan blue dye exclusion at the end of each experiment, was always greater than 90%. Stock solutions for A23187, D609, U-73122, and indomethacin were prepared in DMSO and stored at -20° C. Aliquots were diluted in Ca^++ /Mg^++ fee HBSS to the indicated concentration immediately prior to use. […]
Results were expressed as mean±SEM and were analyzed statistically by means of the analysis of variance followed by the Newman-Keuls-Student test with the level of significance set at p<0.05. Correlation coefficients were determined by linear regression, and correlation analysis was performed by Fisher's r to z transformation with the level of significance set at p<0.05.

[2] = tested on: human neutrophils (PGE2 production); test: PGE2 production by human neutrophils (priming, A23187 stimulation, ELISA)
Method: FIG. 1B is a graph showing the effect of arachidonic acid (AA) and oleic acid (OA) on lipid body induction (black) and priming for enhanced prostaglandin E2 (PGE2) production (white) by human neutrophils. Neutrophils (10^6 /mL) were stimulated for one hour with arachidonic acid (3.7, 7.5, 15 μM) or oleic acid (2.5, 5, 10 μM). Lipid bodies were enumerated using light microscopy following osmium staining. The concentration of PGE2 in the supernatant was measured by ELISA after incubation with A23187 (0.5 μM) for 15 minutes at 37° C. Data are expressed as mean from 2-3 independent assays performed in duplicate.
as §1

[3] = Homo sapiens, Neutrophil, 1 h, read-out: fold increase in production of LTB4
[4] = Homo sapiens, Neutrophil, 1 h, read-out: fold increase in production of PGE2

Row | SMILES | inhibition of calcium ionophore-induced LTB4 production ([1]; cells not pre-stimulated with cis-unsaturated fatty acids) | inhibition of oleic acid-induced priming for enhanced LTB4 production ([1]; neutrophils, 10 μg/mL, OA 10 μM) | inhibition of arachidonic acid-induced lipid body formation (human eosinophils; 10 μg/mL) | inhibition of oleic acid-induced lipid body formation (human eosinophils; 10 μg/mL) | inhibition of PGE2 production ([2]; neutrophils, 10 μg/mL pretreatment) | fold induction at 10 µM [1, 3] | increase in production of LTB4 ([1]; neutrophils) | correlation (r) between number of lipid bodies and priming for enhanced LTB4 release ([1]; oleic acid, leukocytes, p<0.05) | increase in number of lipid bodies (human eosinophils) | fold induction at 10 µM [2, 4] | increase in production of PGE2 ([2]; neutrophils) | correlation (r) between number of lipid bodies and priming for enhanced PGE2 release ([2]; oleic acid, leukocytes, p<0.01) | fold induction at 15 µM [1, 3] | fold induction at 15 µM [2, 4]
1 | CC(=O)Oc1ccccc1C(=O)O [aspirin] | failed to inhibit | significantly inhibited | significantly inhibited | significantly inhibited | inhibited PGE2 production | – | – | – | – | – | – | – | – | –
2 | CCCCCCCC/C=C\CCCCCCCC(=O)O [oleic acid] | – | – | – | – | – | 2 | dose-dependent increase in production | 0.96 | dose-dependent increase in the number of lipid bodies | 2 | dose-dependent increase in production | 0.99 | – | –
3 | CCCCC/C=C\C/C=C\C/C=C\C/C=C\CCCC(=O)O [arachidonic acid] | – | – | – | – | – | – | dose-dependent increase in production | – | dose-dependent increase in the number of lipid bodies | – | dose-dependent increase in production | – | 2.3 | 3.5
